# Biological target: human PDE1b enzyme (Homo sapiens (Human), UniProt Q01064)
# Assay: PDE1b inhibitory assay (IMAP TR-FRET)
# Settings: not given
row,SMILES,EC50 [nM]
1,"COc1ccc(Cn2c(=O)n3ncnc3c3c(CN(C(C)C)C(C)C)csc32)cc1 [Example 215, 9-((Diisopropylamino)methyl)-6-(4-methoxybenzyl)thieno[3,2-e][1,2,4]triazolo[1,5-c]pyrimidin-5(6H)-one]",100 to 1000
2,"O=c1n(Cc2ccc(Cl)cc2)c2sc3c(c2c2ncnn12)CCNC3 [Example 99, 6-(4-Chlorobenzyl)-8,9,10,11-tetrahydropyrido[4′,3′:4,5]thieno[3,2-e][1,2,4]triazolo[1,5-c]pyrimidin-5(6H)-one]",1000 to 10000
3,"COc1ccc(Cn2c(=O)n3ncnc3c3c4c(sc32)CN(CC(C)C)CC4(F)F)cc1 [Example 218, 11,11-Difluoro-9-isobutyl-6-(4-methoxybenzyl)-8,9,10,11-tetrahydropyrido[4′,3′:4,5]thieno[3,2-e][1,2,4]triazolo[1,5-c]pyrimidin-5 (6H)-one]",100 to 1000
4,"O=c1n(Cc2cccc(Cl)c2)c2sc3c(c2c2ncnn12)CCCC3 [Example 85, 6-(3-Chlorobenzyl)-8,9,10,11-tetrahydrobenzo[4,5]thieno[3,2-e][1,2,4]triazolo[1,5-c]pyrimidin-5(6H)-one]",100 to 1000
5,"COc1ccc(Cn2c(=O)n3ncnc3c3c4c(sc32)CNCC4)cc1 [Example 183, 6-(4-Methoxybenzyl)-8,9,10,11-tetrahydropyrido[4′,3′:4,5]thieno[3,2-e][1,2,4]triazolo[1,5-c]pyrimidin-5(6H)-one]",100 to 1000
6,"O=c1n(Cc2ccc(OC(F)(F)F)cc2)c2sc3c(c2c2ncnn12)CCOC3 [Example 96, 6-(4-(Trifluoromethoxy)benzyl)-6,8,10,11-tetrahydro-5H-pyrano[4′,3′:4,5]thieno[3,2-e][1,2,4]triazolo[1,5-c]pyrimidin-5-one]",1000 to 10000

# Same assay, conditions: negative log of half-maximal molar inhibitory concentration; 200 nM FAM-cAMP; reported as ranges
row,SMILES,PDE1b (pEC50)
1,"COc1ccc(Cn2c(=O)n3ncnc3c3c(C)c(CN(CCO)Cc4ccccc4)sc32)cc1 [Example 48, 8-((Benzyl(2-hydroxyethyl)amino)methyl)-6-(4-methoxybenzyl)-9-methylthieno[3,2-e][1,2,4]triazolo[1,5-c]pyrimidin-5(6H)-one]",>7
2,"CC(C)CCc1cc2c(s1)n(Cc1ccc(-c3ccccc3)cc1)c(=O)n1ncnc21 [Example 21, 6-([1,1′-Biphenyl]-4-ylmethyl)-8-isopentylthieno[3,2-e][1,2,4]triazolo[1,5-c]pyrimidin-5(6H)-one]",<5
3,"COc1ccc(Cn2c(=O)n3ncnc3c3c(C)c(CN(C)C)sc32)cc1 [Example 45, 8-((Dimethylamino)methyl)-6-(4-methoxybenzyl)-9-methylthieno[3,2-e][1,2,4]triazolo[1,5-c]pyrimidin-5(6H)-one]",>7
4,"COc1ccc(Cn2c(=O)n3ncnc3c3c(C)c(CN4CCN(C(C)=O)CC4)sc32)cc1 [Example 51, 8-((4-Acetylpiperazin-1-yl)methyl)-6-(4-methoxybenzyl)-9-methylthieno[3,2-e][1,2,4]triazolo[1,5-c]pyrimidin-5(6H)-one]",>7
5,"COc1ccc(Cn2c(=O)n3ncnc3c3cc(CN4CCCN(C(C)=O)CC4)sc32)cc1 [Example 193, 8-((4-Acetyl-1,4-diazepan-1-yl)methyl)-6-(4-methoxybenzyl)thieno[3,2-e][1,2,4]triazolo[1,5-c]pyrimidin-5(6H)-one]",>7
6,"COc1ccc(Cn2c(=O)n3ncnc3c3c(C)c(CN4CCOC(C)C4)sc32)cc1 (stereo not drawn) [Example 70, 6-(4-Methoxybenzyl)-9-methyl-8-((2-methylmorpholino)methyl)thieno[3,2-e][1,2,4]triazolo[1,5-c]pyrimidin-5(6H)-one]",>7
7,"C[C@@H]1CN(Cc2cc3c(s2)n(Cc2ccc(F)c(Cl)c2)c(=O)n2ncnc32)C[C@H](C)O1 [Example 205, 6-(3-Chloro-4-fluorobenzyl)-8-(((2R,6S)-2,6-dimethylmorpholino)methyl)thieno[3,2-e][1,2,4]triazolo[1,5-c]pyrimidin-5(6H)-one]",>7
8,"COc1ccc(Cn2c(=O)n3ncnc3c3c4c(sc32)CN(C(=O)C2CCOC2)CC4(F)F)cc1 (stereo not drawn) [Example 166, 11,11-Difluoro-6-(4-methoxybenzyl)-9-(tetrahydrofuran-3-carbonyl)-8,9,10,11-tetrahydropyrido[4′,3′:4,5]thieno[3,2-e][1,2,4]triazolo[1,5-c]pyrimidin-5 (6H)-one]",>7
9,"COc1ccc(Cn2c(=O)n3ncnc3c3c(C)c(CN4CCN(C(C)C)CC4)sc32)cc1 [Example 64, 8-((4-Isopropylpiperazin-1-yl)methyl)-6-(4-methoxybenzyl)-9-methylthieno[3,2-e][1,2,4]triazolo[1,5-c]pyrimidin-5(6H)-one]",>7
10,"COc1ccc(Cn2c(=O)n3ncnc3c3cc(CN4CCN5C(=O)OCC5C4)sc32)cc1 (stereo not drawn) [Example 40, 7-((6-(4-Methoxybenzyl)-5-oxo-5,6-dihydrothieno[3,2-e][1,2,4]triazolo[1,5-c]pyrimidin-8-yl)methyl)tetrahydro-1H-oxazolo[3,4-a]pyrazin-3(5H)-one]",>7
11,COc1ccc(Cn2c(=O)n3ncnc3c3c4c(sc32)CN(CC2CCC(=O)O2)CC4)cc1 (stereo not drawn) [Example 126],>7
12,"COc1ccc(Cn2c(=O)n3ncnc3c3cc(CN4C[C@@H](C)O[C@@H](C)C4)sc32)cc1F [Example 201, 8-(((2R,6S)-2,6-Dimethylmorpholino)methyl)-6-(3-fluoro-4-methoxybenzyl)thieno[3,2-e][1,2,4]triazolo[1,5-c]pyrimidin-5(6H)-one]",>7
13,"COc1ccc(Cn2c(=O)n3ncnc3c3cc(CN4CCN(S(C)(=O)=O)CC4)sc32)cc1 [Example 35, 6-(4-Methoxybenzyl)-8-((4-(methylsulfonyl)piperazin-1-yl)methyl)thieno[3,2-e][1,2,4]triazolo[1,5-c]pyrimidin-5(6H)-one]",>7
14,"COc1ccc(Cn2c(=O)n3ncnc3c3c(C)c(CNC4CC4)sc32)cc1 [Example 57, 8-((Cyclopropylamino)methyl)-6-(4-methoxybenzyl)-9-methylthieno[3,2-e][1,2,4]triazolo[1,5-c]pyrimidin-5(6H)-one]",>7
15,"COc1ccc(Cn2c(=O)n3ncnc3c3c4c(sc32)CN(CC2CCCOC2)CC4(F)F)cc1 (stereo not drawn) [Example 136, 11,11-Difluoro-6-(4-methoxybenzyl)-9-((tetrahydro-2H-pyran-3-yl)methyl)-8,9,10,11-tetrahydropyrido[4′,3′:4,5]thieno[3,2-e][1,2,4]triazolo[1,5-c]pyrimidin-5(6H)-one]",>7
16,"COc1ccc(Cn2c(=O)n3ncnc3c3c(CN4CCC(Oc5ccccc5)C4)csc32)cc1 (stereo not drawn) [Example 189, 6-(4-Methoxybenzyl)-9-((3-phenoxypyrrolidin-1-yl)methyl)thieno[3,2-e][1,2,4]triazolo[1,5-c]pyrimidin-5(6H)-one]",>7
17,"COc1ccc(Cn2c(=O)n3ncnc3c3c4c(sc32)N(CC2CCOC2)CCC4)cc1 (stereo not drawn) [Example 150, 6-(4-Methoxybenzyl)-8-((tetrahydrofuran-3-yl)methyl)-8,9,10,11-tetrahydropyrido[3′,2′:4,5]thieno[3,2-e][1,2,4]triazolo[1,5-c]pyrimidin-5(6H)-one]",>7
18,"COc1ccc(Cn2c(=O)n3ncnc3c3c(C)c(CN4CCN5CCC[C@H]5C4)sc32)cc1 [Example 75, (S)-8-((Hexahydropyrrolo[1,2-a]pyrazin-2(1H)-yl)methyl)-6-(4-methoxybenzyl)-9-methylthieno[3,2-e][1,2,4]triazolo[1,5-c]pyrimidin-5(6H)-one]",>7

# Reference: patent US10092575B2, “Substituted thiophene- and furan-fused azolopyrimidine-5-(6H)-one compounds” (DART NEUROSCIENCE (CAYMAN) LTD., priority 2012, dated 2018)
